pIC50: −log10 of the molar value. Values joined by “and” are separate entries in the source; they are usually repeats but may differ in a detail not shown here. Identical values can stand only once. Like-named read-outs stand apart in the source and are kept apart here.
Target: T1, Recombinant human TPH1 (MBP tagged) (Homo sapiens, UniProt P17752)
T1 construct: cloning full length human TPH1 cDNA in to a bacterial pMAL-c5E expression vector; made in house; host or cells: E. coli BL21 (DE3)
T1 sequence (P17752 1-444): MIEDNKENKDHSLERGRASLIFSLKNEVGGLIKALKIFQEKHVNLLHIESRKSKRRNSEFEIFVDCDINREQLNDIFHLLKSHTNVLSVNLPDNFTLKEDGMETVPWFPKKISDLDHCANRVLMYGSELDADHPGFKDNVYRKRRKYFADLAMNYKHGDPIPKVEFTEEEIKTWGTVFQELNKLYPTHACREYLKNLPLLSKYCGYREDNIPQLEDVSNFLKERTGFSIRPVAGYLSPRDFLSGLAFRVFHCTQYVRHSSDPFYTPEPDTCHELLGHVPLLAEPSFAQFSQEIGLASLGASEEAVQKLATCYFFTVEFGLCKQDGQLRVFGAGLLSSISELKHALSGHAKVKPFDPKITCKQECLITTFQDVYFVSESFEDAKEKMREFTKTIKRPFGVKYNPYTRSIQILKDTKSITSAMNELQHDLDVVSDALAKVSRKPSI
Experiment: TPH1 in vitro inhibition assay (kinetic fluorescence)
Type: biochemical
Summary of the method: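 Final mix: 15 nM MBP-TPH1, 30 μM Trp, 36 μM 6-methyltetrahydropterin, 25 μM ferrous ammonium sulfate, 50 mM MES pH 7.1, 1% DMSO, room temperature.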

[1] = read-out: TPH1 Range (TPH1 inhibition IC50)

Molecule	pIC50 [1]	pIC50 (TPH1 Range (TPH1 inhibition IC50))
CS(=O)(=O)c1ccc(-c2cc(Cl)ccc2[C@@H](Oc2cc(N3CCC4(CC3)CN[C@H](C(=O)O)C4)nc(N)n2)C(F)(F)F)cc1 [Example 34ad, (S)-8-(2-amino-6-((R)-1-(5-chloro-4′-(methylsulfonyl)-[1,1′-biphenyl]-2-yl)-2,2,2-trifluoroethoxy)pyrimidin-4-yl)-2,8-diazaspiro[4.5]decane-3-carboxylic acid]	–	5.52 to 6.52
CCOc1ccc(-c2cc(Cl)ccc2[C@@H](Oc2cc(N3CCC4(CC3)CN[C@H](C(=O)O)C4)nc(N)n2)C(F)(F)F)cc1F [Example 34az, (S)-8-(2-amino-6-((R)-1-(5-chloro-4′-ethoxy-3′-fluoro-[1,1′-biphenyl]-2-yl)-2,2,2-trifluoroethoxy)pyrimidin-4-yl)-2,8-diazaspiro[4.5]decane-3-carboxylic acid]	5.52 to 6.52	–
Cc1ccn(-c2cc(C(=O)OC3CCCC3)ccc2[C@@H](Oc2cc(N3CCC4(CC3)CN[C@H](C(=O)O)C4)nc(N)n2)C(F)(F)F)n1 [Example 18f, (S)-8-(2-amino-6-((R)-1-(4-((cyclopentyloxy)carbonyl)-2-(3-methyl-1H-pyrazol-1-yl)phenyl)-2,2,2-trifluoroethoxy)pyrimidin-4-yl)-2,8-diazaspiro[4.5]decane-3-carboxylic acid]	> 7.30	–
C[C@@H](Nc1nc(N)nc(N2CCC3(CC2)CNC(C(=O)O)C3)n1)c1ccc2ccccc2c1 (stereo partly drawn) [Example 39e, 8-(4-amino-6-(((R)-1-(naphthalen-2-yl)ethyl)amino)-1,3,5-triazin-2-yl)-2,8-diazaspiro[4.5]decane-3-carboxylic acid]	5.52 to 6.52	–
C=CC(=O)NCc1cccc(-c2cc(Cl)ccc2[C@@H](Oc2cc(N3CCC4(CC3)CN[C@H](C(=O)O)C4)nc(N)n2)C(F)(F)F)c1 [Example 34aa, (S)-8-(6-((R)-1-(3′-(acrylamidomethyl)-5-chloro-[1,1′-biphenyl]-2-yl)-2,2,2-trifluoroethoxy)-2-aminopyrimidin-4-yl)-2,8-diazaspiro[4.5]decane-3-carboxylic acid]	> 7.30	–
(S)-8-(2-amino-6-((R)-1-(5-chloro-3′-isopropyl-[1,1′- biphenyl]-2-yl)-2,2,2-trifluoroethoxy)pyrimidin-4- yl)-2,8-diazaspiro[4.5]decane-3-carboxylic acid [Example 34ce]	6.52 to 7.30	–
Nc1nc(O[C@H](c2ccc(Cl)cc2-c2cc(Cl)cc(C(F)(F)F)c2)C(F)(F)F)cc(N2CCC3(CC2)CN[C@H](C(=O)O)C3)n1 [Example 34ap, (S)-8-(2-amino-6-((R)-1-(3′,5-dichloro-5′-(trifluoromethyl)-[1,1′-biphenyl]-2-yl)-2,2,2-trifluoroethoxy)pyrimidin-4-yl)-2,8-diazaspiro[4.5]decane-3-carboxylic acid]	6.52 to 7.30	–
CC(C)Oc1cccc(-c2cc(Cl)ccc2[C@@H](Oc2cc(N3CCC4(CC3)CN[C@H](C(=O)O)C4)nc(N)n2)C(F)(F)F)c1 [Example 34ag, (S)-8-(2-amino-6-((R)-1-(5-chloro-3′-isopropoxy-[1,1′-biphenyl]-2-yl)-2,2,2-trifluoroethoxy)pyrimidin-4-yl)-2,8-diazaspiro[4.5]decane-3-carboxylic acid]	> 7.30	–
Nc1nc(O[C@H](c2ccc(-c3cccnc3)cc2)C(F)(F)F)cc(N2CCC3(CC2)CN[C@H](C(=O)O)C3)n1 [Example 55aw, (S)-8-(2-amino-6-((R)-2,2,2-trifluoro-1-(4-(pyridin-3-yl)phenyl)ethoxy)pyrimidin-4-yl)-2,8-diazaspiro[4.5]decane-3-carboxylic acid]	5.52 to 6.52	–
CCOC(=O)c1cccc(-c2cc(Cl)ccc2[C@@H](Oc2cc(N3CCC4(CC3)CN[C@H](C(=O)O)C4)nc(N)n2)C(F)(F)F)c1 [Example 35, (S)-8-(2-amino-6-((R)-1-(5-chloro-3′-(ethoxycarbonyl)-[1,1′-biphenyl]-2-yl)-2,2,2-trifluoroethoxy)pyrimidin-4-yl)-2,8-diazaspiro[4.5]decane-3-carboxylic acid]	6.52 to 7.30	–
Nc1nc(O[C@H](c2ccc(-c3ccc4ncnn4c3)cc2)C(F)(F)F)cc(N2CCC3(CC2)CN[C@H](C(=O)O)C3)n1 [Example 55l, (S)-8-(6-((R)-1-(4-([1,2,4]triazolo[1,5-a]pyridin-6-yl)phenyl)-2,2,2-trifluoroethoxy)-2-aminopyrimidin-4-yl)-2,8-diazaspiro[4.5]decane-3-carboxylic acid]	6.52 to 7.30	–

The next lines start with the values.

pIC50 [1]	pIC50 (TPH1 Range (TPH1 inhibition IC50))	Molecule
5.52 to 6.52	–	Cc1cccc(-c2ccc([C@@H](Oc3cc(N4CCC5(CC4)CN[C@H](C(=O)O)C5)nc(N)n3)C(F)(F)F)cc2)c1 [Example 55cx, (S)-8-(2-amino-6-((R)-2,2,2-trifluoro-1-(3′-methyl-[1,1′-biphenyl]-4-yl)ethoxy)pyrimidin-4-yl)-2,8-diazaspiro[4.5]decane-3-carboxylic acid]
> 7.30 and 6.52 to 7.30	–	CCOc1cc(F)cc(-c2ccc([C@@H](Oc3cc(N4CCC5(CC4)CN[C@H](C(=O)O)C5)nc(N)n3)C(F)(F)F)c(-n3ccc(C)n3)c2)c1 [Example 1ay, (S)-8-(2-amino-6-((R)-1-(3′-ethoxy-5′-fluoro-3-(3-methyl-1H-pyrazol-1-yl)-[1,1′-biphenyl]-4-yl)-2,2,2-trifluoroethoxy)pyrimidin-4-yl)-2,8-diazaspiro[4.5]decane-3-carboxylic acid]
5.52 to 6.52	–	CCCc1ccc(-c2ccc([C@@H](Oc3cc(N4CCC5(CC4)CN[C@H](C(=O)O)C5)nc(N)n3)C(F)(F)F)cc2)cc1 [Example 55bs, (S)-8-(2-amino-6-((R)-2,2,2-trifluoro-1-(4′-propyl-[1,1′-biphenyl]-4-yl)ethoxy)pyrimidin-4-yl)-2,8-diazaspiro[4.5]decane-3-carboxylic acid]
> 7.30	–	C=Cc1ccc(-n2ccc(C)n2)c([C@@H](Oc2cc(N3CCC4(CC3)CN[C@H](C(=O)O)C4)nc(N)n2)C(F)(F)F)c1 [Example 19a, (S)-8-(2-amino-6-((R)-2,2,2-trifluoro-1-(2-(3-methyl-1H-pyrazol-1-yl)-5-vinylphenyl)ethoxy)pyrimidin-4-yl)-2,8-diazaspiro[4.5]decane-3-carboxylic acid]
> 7.30	–	Cc1ccn(-c2cc(Br)ccc2[C@@H](Oc2cc(N3CCC4(CC3)CN[C@H](C(=O)O)C4)nc(N)n2)C(F)(F)F)n1 [Example 10m, (S)-8-(2-amino-6-((R)-1-(4-bromo-2-(3-methyl-1H-pyrazol-1-yl)phenyl)-2,2,2-trifluoroethoxy)pyrimidin-4-yl)-2,8-diazaspiro[4.5]decane-3-carboxylic acid]
5.52 to 6.52	–	Nc1nc(O[C@H](c2ccc(-c3ccc(C(=O)O)cc3)cc2)C(F)(F)F)cc(N2CCC3(CC2)CN[C@H](C(=O)O)C3)n1 [Example 55br, (S)-8-(2-amino-6-((R)-1-(4′-carboxy-[1,1′-biphenyl]-4-yl)-2,2,2-trifluoroethoxy)pyrimidin-4-yl)-2,8-diazaspiro[4.5]decane-3-carboxylic acid]
6.52 to 7.30	–	COc1cc(-c2ccc([C@@H](Oc3cc(N4CCC5(CC4)CN[C@H](C(=O)O)C5)nc(N)n3)C(F)(F)F)cc2)ccc1C(=O)N1CCCC1 [Example 55r, (S)-8-(2-amino-6-((R)-2,2,2-trifluoro-1-(3′-methoxy-4′-(pyrrolidine-1-carbonyl)-[1,1′-biphenyl]-4-yl)ethoxy)pyrimidin-4-yl)-2,8-diazaspiro[4.5]decane-3-carboxylic acid]
> 7.30	–	COc1cc(-c2ccc([C@@H](Oc3cc(N4CCC5(CC4)CN[C@H](C(=O)O)C5)nc(C)n3)C(F)(F)F)c(-n3ccc(C)n3)c2)ccn1 [Example 29a, (S)-8-(2-methyl-6-((R)-2,2,2-trifluoro-1-(4-(2-methoxypyridin-4-yl)-2-(3-methyl-1H-pyrazol-1-yl)phenyl)ethoxy)pyrimidin-4-yl)-2,8-diazaspiro[4.5]decane-3-carboxylic acid]
6.52 to 7.30	–	NC(=O)c1ccc(-c2ccc([C@@H](Oc3cc(N4CCC5(CC4)CN[C@H](C(=O)O)C5)nc(N)n3)C(F)(F)F)cc2)cc1 [Example 55df, (S)-8-(2-amino-6-((R)-1-(4′-carbamoyl-[1,1′-biphenyl]-4-yl)-2,2,2-trifluoroethoxy)pyrimidin-4-yl)-2,8-diazaspiro[4.5]decane-3-carboxylic acid]
6.52 to 7.30	–	Nc1nc(O[C@H](c2ccc3c(c2)CNCN3)C(F)(F)F)cc(N2CCC3(CC2)CN[C@H](C(=O)O)C3)n1 [Example 58, (S)-8-(2-amino-6-((R)-2,2,2-trifluoro-1-(1,2,3,4-tetrahydroquinazolin-6-yl)ethoxy)pyrimidin-4-yl)-2,8-diazaspiro[4.5]decane-3-carboxylic acid]
> 7.30	–	Cc1ccn(-c2ccc(-c3ccc(CO)c(C)c3)cc2[C@@H](Oc2cc(N3CCC4(CC3)CN[C@H](C(=O)O)C4)nc(N)n2)C(F)(F)F)n1 [Example 19l, (S)-8-(2-amino-6-((R)-2,2,2-trifluoro-1-(4′-(hydroxymethyl)-3′-methyl-4-(3-methyl-1H-pyrazol-1-yl)-[1,1′-biphenyl]-3-yl)ethoxy)pyrimidin-4-yl)-2,8-diazaspiro[4.5]decane-3-carboxylic acid]
> 7.30	–	CCOC(=O)c1ccccc1-c1ccc(-n2ccc(C)n2)c([C@@H](Oc2cc(N3CCC4(CC3)CN[C@H](C(=O)O)C4)nc(N)n2)C(F)(F)F)c1 [Example 20, (S)-8-(2-amino-6-((R)-1-(2′-(ethoxycarbonyl)-4-(3-methyl-1H-pyrazol-1-yl)-[1,1′-biphenyl]-3-yl)-2,2,2-trifluoroethoxy)pyrimidin-4-yl)-2,8-diazaspiro[4.5]decane-3-carboxylic acid]
